According to patent EP4792813A1, “USE OF […] PREPARATION OF DRUG FOR PREVENTING AND TREATING SEPSIS AND SEPSIS-INDUCED ORGAN DAMAGE” (Lunan Pharmaceutical Group Corporation, priority 2023, dated 2025):

Columns and labels:
Type in all cases: in vivo, C57BL/6J mice
[1] = test system: mice with LPS-induced sepsis; assay: Serum biochemical parameters (ALT, AST, UREA, CREA-S) in mice with LPS-induced sepsis; design: CREA-S: unit not given here; settings: for ALT / AST / CREA-S / UREA: serum, 24 h after LPS, x±s, n = 7; for serum ALT, AST, UREA and CREA-S levels: result in words, compared with the model group
Description: (§1) After 1 week of acclimatization, mice were randomly divided into 8 groups: normal group, model group, positive control group, control group 1, control group 2, and compound I low-, medium- and high-dose groups, with 20 mice in each group. […] After the experiment was started, the normal group and model group were intraperitoneally injected with normal saline according to the body weight. The positive control group was intraperitoneally injected with 1 mg/kg dexamethasone. The Compound I low-, medium- and high-dose groups were intraperitoneally injected with 1 mg/kg, 2.5 mg/kg and 5 mg/kg compound I according to the body weight, respectively. The control group 1 was intraperitoneally injected with 5 mg/kg control compound 1 according to the body weight, and the control group 2 was intraperitoneally injected with 5 mg/kg control compound 2 according to the body weight. After 1 h, the normal group was intraperitoneally injected with normal saline according to the body weight, and the model group and each administration group were injected with 20 mg/kg LPS and then dissected 24 h later.
A series of operations were performed on the serum in accordance with the instructions of the kits to detect ALT, AST, UREA and CREA-S concentrations.

[2] = test system: mice with LPS-induced sepsis-associated encephalopathy; assay: Novel object recognition test in mice with LPS-induced sepsis-associated encephalopathy; settings: 1, 2.5 and 5 mg/kg i.p. on days 1-3, 7.5 mg/kg LPS on days 1 and 2; compared with the model group; FIG. 6
Description: (§2) After 1 week of acclimatization, 60 male C57BL/6J mice were randomly divided into five groups: normal group, model group, Compound I low-dose group, Compound I medium-dose group and Compound I high-dose group, with 12 mice per group.
On day 1 of the experiment, the normal group and model group were intraperitoneally injected with normal saline according to the body weight. The Compound I low-, medium- and high-dose groups were intraperitoneally injected with 1 mg/kg, 2.5 mg/kg and 5 mg/kg Compound I according to the body weight, respectively. After 1 h, the normal group was intraperitoneally injected with a corresponding volume of normal saline according to the body weight of the mice, while the model group and each administration group were injected with 7.5 mg/kg LPS. The administration volume was 10 mL/kg.
On day 2 of the experiment, the operations on day 1 were repeated. […]
The mice were individually placed in a square arena (40 × 40 × 40 cm) and allowed to move freely for 10 min. […] The time and frequency of mice contacting the objects or exploring within 2 cm of the objects (forepaws on the object, nose sniffing, or licking the object) were recorded. The preference index (PI) and discrimination index were calculated. […]

[3] = test system: mice with LPS-induced sepsis-associated encephalopathy; assay: Brain index in mice with LPS-induced sepsis-associated encephalopathy; settings: 1, 2.5 and 5 mg/kg i.p. 1 h before 25 mg/kg LPS; 24 h; compared with the model group (p<0.01)
Description: as §2
(§3) After the experiment was started, the normal group and model group were intraperitoneally injected with normal saline according to the body weight. The Compound I low-, medium- and high-dose groups were intraperitoneally injected with 1 mg/kg, 2.5 mg/kg and 5 mg/kg Compound I according to the body weight, respectively. After 1 h, the normal group was intraperitoneally injected with a corresponding volume of normal saline according to the body weight of the mice, while the model group and each administration group were injected with 25 mg/kg LPS. The administration volume was 10 mL/kg. After 24 h, the mice were anesthetized with pentobarbital sodium. The skull was opened and the brain was harvested, rinsed with normal saline, blotted dry with filter paper, and weighed. The brain index was calculated based on the following formula: Brain index = brain weight/body weight × 100% [formula]

[4] = test system: mice with LPS-induced sepsis; assay: Serum inflammatory factors (ELISA) in mice with LPS-induced sepsis; settings: for IL-6 / TNF-α: serum, 24 h after LPS, x±s, n = 6; for serum inflammatory factor indices: result in words, compared with the model group
Description: as §1
The blood samples were allowed to stand at room temperature for 1 h, followed by centrifugation at 3000 r/min to obtain serum. The serum was divided into two aliquots. One aliquot was processed in accordance with the instructions of TNF-α and IL-1β ELISA kits. Each well was measured at 450 nm using a microplate reader. The OD value of each sample was determined by subtracting the absorbance of the blank control well from the measured value. A standard curve was plotted based on the concentrations and OD values of standard samples to calculate the concentrations of the samples.

[5] = test system: mice with LPS-induced sepsis; assay: HE staining of kidney tissue sections in mice with LPS-induced sepsis; settings: 24 h after intraperitoneal injection of 20 mg/kg LPS, compared with the model group, FIG. 1
Description: as §1
Mouse kidney tissue sections were stained using a hematoxylin-eosin (HE) staining method. First, the baked sections were dewaxed using xylene until the sections became transparent. The dewaxed sections were rinsed with ethanol to remove xylene and then rinsed with distilled water. […]

[6] = test system: mice with LPS-induced sepsis; assay: 48 h survival rate of mice with LPS-induced sepsis; settings: within 48 h after 20 mg/kg LPS; result in words; FIG. 2
Description: as §1
4.4 After 48 h, the survival rate of the remaining 10 mice in each group was observed.

[7] = test system: mice with LPS-induced sepsis-associated encephalopathy; assay: Nissl staining of hippocampus in mice with LPS-induced sepsis-associated encephalopathy; settings: 1, 2.5 and 5 mg/kg i.p. 1 h before 25 mg/kg LPS; 24 h; compared with the model group
Description: as §2, §3
The prepared sections were dried and dewaxed, and then stained with a Nissl staining solution for 90 min. […]

[8] = test system: mice with LPS-induced sepsis-associated encephalopathy; assay: Eight-arm maze test in mice with LPS-induced sepsis-associated encephalopathy; settings: compared with the model group
Description: After 1 week of acclimatization, 60 male C57BL/6J mice were randomly divided into five groups: normal group, model group, compound I low-dose group, Compound I medium-dose group and Compound I high-dose group, with 12 mice in each group.
After the experiment was started, the normal group and model group were intraperitoneally injected with normal saline according to the body weight. The Compound I low-, medium- and high-dose groups were intraperitoneally injected with 1 mg/kg, 2.5 mg/kg and 5 mg/kg compound I, respectively. After 1 h, the normal group was intraperitoneally injected with a corresponding volume of normal saline according to the body weight of the mice, while the model group and each administration group were injected with 10 mg/kg LPS, with an administration volume of 10 mL/kg.
Behavioral tests were performed in an automated eight-arm maze. Before the experiment was started, all the mice were required to undergo acclimatization training. The food intake of the mice was restricted daily to facilitate the rapid finding and memorization of food pellets placed in the 1st, 2nd, 4th and 7th arms during the test. On day 1, an equal amount of food pellets was placed in each arm. The mice were placed in the maze and then allowed to explore freely for 300 s before acclimatization was terminated. Starting from day 2, the automatic doors were first closed, and the mice were placed in the center of the maze for 15 s. The automatic doors were then opened to release the mice for testing. The training was terminated when the time reached 300 s or the mice found the food pellets. The training was conducted for a total of five days. Working memory errors were defined as repeated entries by the mice into arms where food pellets had already been found and consumed. Reference memory errors were defined as entries into arms without food pellets. The total number of arm entries was recorded as the total arm entries. The time required for the mice to find all food pellets was defined as the test duration. On the day 7 of the experiment, a formal trial was initiated, and this step unchanged. The frequencies of working memory errors and reference memory errors were calculated based on the recorded working memory errors, reference memory errors and total arm entries.

[9] = 1 mg/kg i.p. 1 h before 20 mg/kg LPS
[10] = 2.5 mg/kg i.p. 1 h before 20 mg/kg LPS
[11] = 5 mg/kg i.p. 1 h before 20 mg/kg LPS
[12] = 1, 2.5 and 5 mg/kg i.p. 1 h before 10 mg/kg LPS, best effect in medium-dose group, FIG. 5

Q: With `Cn1c(C(=O)N2CCC(C(=O)Nc3cccc(Cl)c3)CC2)cc2ccccc21` [Compound I, N-(3-chlorophenyl)-1-(1-methyl-1H-indole-2-carbonyl)piperidine-4-carboxamide] as the compound, how does the ALT [1, 9] read?
A: The ALT was 69.44 ± 16.93 U/L.

Q: And the AST [1, 9]?
A: Its AST is 183.40 ± 37.18 U/L.

Q: What about the CREA-S [1, 9] of the same compound?
A: Its CREA-S is 21.07 ± 5.89.

Q: And the UREA [1, 9]?
A: Its UREA is 35.56 ± 8.88 mmol/L.

Q: And the ALT [1, 10]?
A: The ALT was 67.83 ± 19.01 U/L.

Q: And the AST [1, 10]?
A: Its AST is 180.20 ± 54.87 U/L.

Q: What about the CREA-S [1, 10] of the same compound?
A: The CREA-S was 18.64 ± 6.72.

Q: What about the UREA [1, 10] of the same compound?
A: The UREA was 26.02 ± 9.03 mmol/L.

Q: What about the ALT [1, 11] of the same compound?
A: Its ALT is 59.61 ± 6.89 U/L.

Q: And the AST [1, 11]?
A: Its AST is 137.50 ± 26.26 U/L.

Q: What about the CREA-S [1, 11] of the same compound?
A: Its CREA-S is 20.80 ± 7.59.

Q: What about the UREA [1, 11] of the same compound?
A: Its UREA is 22.69 ± 10.33 mmol/L.

Q: What about the discrimination index [2] of the same compound?
A: Its discrimination index is “increased”.

Q: What about the preference index [2] of the same compound?
A: The preference index was “increased”.

Q: What about the brain index [3] of the same compound?
A: Its brain index is “significantly reduced”.

Q: What about the IL-6 [4, 9] of the same compound?
A: Its IL-6 is 20.10 ± 3.28 pg.

Q: What about the TNF-α [4, 9] of the same compound?
A: Its TNF-α is 127.00 ± 16.42 pg.

Q: And the IL-6 [4, 10]?
A: The IL-6 was 17.60 ± 3.20 pg.

Q: And the TNF-α [4, 10]?
A: Its TNF-α is 76.30 ± 6.77 pg.

Q: What about the IL-6 [4, 11] of the same compound?
A: The IL-6 was 17.04 ± 2.94 pg.

Q: And the TNF-α [4, 11]?
A: Its TNF-α is 14.00 ± 2.29 pg.

Q: And the “changes of renal tubules (abnormal dilation of renal tubules, atrophy of epithelial cells and lightening of cytoplasm), HE staining” value [5]?
A: The value was “significantly ameliorated”.

Q: What about the survival rate [6] of the same compound?
A: Its survival rate is “significantly improve the survival rate”.

Q: And the “Nissl staining of the hippocampus region of the mouse brain tissue” value [7]?
A: Its value is “reduced neuronal pyknosis, recovered cell morphology and normal Nissl bodies”.

Q: What about the “frequency of reference memory errors” value [8, 12] of the same compound?
A: The value was “decreased”.

Q: And the “frequency of working memory errors” value [8, 12]?
A: Its value is “decreased”.

Q: And the test duration ([8]; medium- and high-dose groups (2.5 and 5 mg/kg i.p.), 10 mg/kg LPS)?
A: Its test duration is “decreased”.

Q: What about the “total numbers of arm entries” value ([8]; medium- and high-dose groups (2.5 and 5 mg/kg i.p.), 10 mg/kg LPS, most significant reduction in medium-dose group) of the same compound?
A: The value was “decreased”.

Q: What does the source list for `C[C@@H]1C[C@H]2[C@@H]3CCC4=CC(=O)C=C[C@]4(C)[C@@]3(F)[C@@H](O)C[C@]2(C)[C@@]1(O)C(=O)CO` [Positive control group, dexamethasone]?
A: ALT [1, 9]: 58.94 ± 7.12 U/L; AST [1, 9]: 142.8 ± 21.78 U/L; UREA [1, 9]: 20.69 ± 5.68 mmol/L; IL-6 [4, 9]: 16.49 ± 1.38 pg; TNF-α [4, 9]: 79.27 ± 4.86 pg

Q: How did the “serum ALT, AST, UREA and CREA-S levels” value [1, 11] turn out when `O=C(Nc1cccc(Cl)c1)C1CCN(C(=O)c2ccc3ccccc3c2)CC1` [Control group 1] was run?
A: The value was “no significant improvements”.

Q: And the ALT [1, 11]?
A: The ALT was 78.19 ± 10.95 U/L.

Q: And the AST [1, 11]?
A: Its AST is 271.1 ± 25.31 U/L.

Q: What about the UREA [1, 11] of the same compound?
A: The UREA was 46.47 ± 4.58 mmol/L.

Q: And the “serum inflammatory factor indices” value [4, 11]?
A: Its value is “no significant improvements”.

Q: And the IL-6 [4, 11]?
A: Its IL-6 is 24.72 ± 4.03 pg.

Q: What about the TNF-α [4, 11] of the same compound?
A: The TNF-α was 244.20 ± 10.95 pg.

Q: With `O=C(c1cccc(O)c1)N1CCC(c2nc3cc(Cl)ccc3o2)CC1` [Control group 2] as the compound, how does the “serum ALT, AST, UREA and CREA-S levels” value [1, 11] read?
A: The value was “no significant improvements”.

Q: And the ALT [1, 11]?
A: Its ALT is 77.76 ± 12.51 U/L.

Q: And the AST [1, 11]?
A: The AST was 265.20±31.82 U/L.

Q: What about the CREA-S [1, 11] of the same compound?
A: Its CREA-S is 43.99 ± 5.81.

Q: And the UREA [1, 11]?
A: Its UREA is 47.22 ± 3.39 mmol/L.

Q: And the “serum inflammatory factor indices” value [4, 11]?
A: Its value is “no significant improvements”.

Q: And the IL-6 [4, 11]?
A: Its IL-6 is 24.56 ± 3.56 pg.

Q: What about the TNF-α [4, 11] of the same compound?
A: Its TNF-α is 238.20 ± 9.79 pg.
